Source: patent US20250017903A1, “USE OF EDARAVONE IN TREATMENT OF AUTISM SPECTRUM DISORDER” (SUZHOU AUZONE BIOLOGICAL TECHNOLOGY CO., LTD., priority 2021, published 2025)

Key:
[1] = system: reduced glutathione (GSH); assay: GSH detection in hippocampus and serum of VPA model rats; assay type: in vivo, rat; settings: for GSH activity in the hippocampus (HIP) / GSH activity in the serum: after 28 days of gavage, mean ± SE
Method: (§1) On the 26th day after the offspring were born, the modeled VPA group was randomly divided into 6 groups: placebo group (n=19, soluplus 428 mg/kg), positive drug (cromolyn sodium) group (n=14, cromolyn sodium 6.3 mg/kg), positive drug solvent (NS) group (n=12, equal dose of normal saline), EDA low-dose group (n=12, Edaravone 3 mg/kg), EDA medium-dose group (n=12, Edaravone 10 mg/kg) and EDA high-dose group (n=22, Edaravone 30 mg/kg); and another CON group (n=9). The positive drug group and the positive drug solvent group were given intraperitoneal injection, and the placebo group and each dose group of EDA were administrated by oral gavage, once a day for 28 consecutive days. Three-chamber social tests were conducted after 14 and 28 days of administration, and an open field test was conducted after 28 days of administration. After the animals were sacrificed, 6 animals were randomly selected from each group of the placebo group and each dose group of EDA, and the prefrontal cortex, hippocampus, cerebellum and blood were collected to detect oxidative stress-related indicators, so as to detect the antioxidant capacity of the body.
After 28 days of gavage treatment, the results of reduced glutathione (GSH) activity detection in hippocampus (HIP) and serum are shown in Table 5.

[2] = system: superoxide dismutase (SOD); assay: SOD activity detection in brain tissue of VPA model rats; assay type: in vivo, rat; settings: for SOD activity in the cerebellum (CE) / SOD activity in the prefrontal cortex (PFC): after 28 days of gavage, mean ± SE
Method: as §1
After 28 days of gavage treatment, the results of superoxide dismutase (SOD) activity detection in the prefrontal cortex (PFC) and cerebellum (CE) are shown in Table 3.

[3] = system: cysteine (Cys); assay: Cys content detection in serum of VPA model rats; assay type: in vivo, rat; settings: for Cys content in serum: after 28 days of gavage, mean ± SE
Method: as §1

[4] = system: VPA-induced autism model rats; assay: Open field test (grooming time) in VPA-induced rat autism model; assay type: in vivo; settings: for Grooming time: VPA rats, mean ± SE, in s (unit assumed); for Grooming time compared with before treatment: self-comparison, p<0.05 (FIG. 5)
Method: (§2) Twenty-five SD pregnant rats were given a single intraperitoneal injection of 500 mg/kg sodium valproate (VPA) on 12.5 embryonic day and delivered on 21 embryonic day, and the male offspring were retained as the VPA group. Five pregnant rats in the control group were given a single intraperitoneal injection of normal saline of the same amount on 12.5 embryonic day and delivered on 21 embryonic day; and the male offspring were designated as the CON group.
(§3) When the offspring rats were 25th day old, an open field test was conducted to observe the grooming time, which reflects the repetitive and stereotyped behaviors of the animals); a three-chamber social test was conducted to observe the Social Index (SI), Social Index=(Time when the animal enters the unfamiliar rat area-time when the animal enters the empty cage area)÷(time when the animal enters the unfamiliar rat area+time when the animal enters the empty cage area), reflecting the social ability of experimental animals.
as §1

[5] = system: VPA-induced autism model rats; assay: Three-chamber social test (social index) in VPA-induced rat autism model; assay type: in vivo; settings: for Social index (SI): VPA rats, mean ± SE
Method: as §2, §3, §1

[6] = system: glutathione S-transferase (GST); assay: GST activity detection in brain tissue of VPA model rats; assay type: in vivo, rat; settings: for GST activity in the hippocampus (HIP) / GST activity in the prefrontal cortex (PFC): after 28 days of gavage, mean ± SE
Method: as §1
After 28 days of gavage treatment, the results of glutathione S-transferase (GST) activity detection in the prefrontal cortex (PFC) and hippocampus (HIP) are shown in Table 4.

[7] = Day 28, EDA 3 mg/kg oral gavage once a day
[8] = Day 28, EDA 10 mg/kg oral gavage once a day
[9] = Day 28, EDA 30 mg/kg oral gavage once a day
[10] = before treatment (baseline), EDA 3 mg/kg group
[11] = before treatment (baseline), EDA 10 mg/kg group
[12] = before treatment (baseline), EDA 30 mg/kg group
[13] = after 14 days of treatment, each dose group of EDA and cromolyn sodium group, p<0.01 (FIG. 4)
[14] = Day 28, cromolyn sodium 6.3 mg/kg intraperitoneal once a day
[15] = before treatment (baseline), cromolyn sodium 6.3 mg/kg group

CC1=NN(c2ccccc2)C(=O)C1 [EDA, 3-methyl-1-phenyl-2-pyrazolin-5-one]
GSH activity in the serum compared with the placebo group ([1]; EDA high-dose group, p<0.01 (FIG. 12)): even more significantly increased
GSH activity in the hippocampus (HIP) compared with the placebo group ([1]; EDA high-dose group, p<0.05 (FIG. 11)): significantly increased
GSH activity in the hippocampus (HIP) ([1]; EDA 3 mg/kg): 14.44 ± 7.97 U/mgprot
GSH activity in the serum ([1]; EDA 3 mg/kg): 9.6 ± 2.14 U/mgprot
GSH activity in the hippocampus (HIP) ([1]; EDA 10 mg/kg): 49.39 ± 10.34 U/mgprot
GSH activity in the serum ([1]; EDA 10 mg/kg): 10.35 ± 1.92 U/mgprot
GSH activity in the hippocampus (HIP) ([1]; EDA 30 mg/kg): 78.87 ± 17.13 U/mgprot
GSH activity in the serum ([1]; EDA 30 mg/kg): 21.45 ± 0.86 U/mgprot
SOD activity in the prefrontal cortex compared with the placebo group ([2]; EDA medium-dose and high-dose groups, p<0.05, high dose p<0.001 (FIG. 7)): significantly increased
SOD activity in the cerebellum (CE) ([2]; EDA 3 mg/kg): 67.04 ± 11.3 U/mgprot
SOD activity in the prefrontal cortex (PFC) ([2]; EDA 3 mg/kg): 124.6 ± 5.73 U/mgprot
SOD activity in the cerebellum (CE) ([2]; EDA 10 mg/kg): 83.07 ± 3.39 U/mgprot
SOD activity in the prefrontal cortex (PFC) ([2]; EDA 10 mg/kg): 203.4 ± 14.37 U/mgprot
SOD activity in the cerebellum (CE) ([2]; EDA 30 mg/kg): 138.7 ± 18.62 U/mgprot
SOD activity in the prefrontal cortex (PFC) ([2]; EDA 30 mg/kg): 315 ± 42.53 U/mgprot
Cys content in the blood compared with the placebo group ([3]; EDA high-dose group, after 28 days of treatment, p<0.0001 (FIG. 13)): significantly higher
Cys content in serum ([3]; EDA 3 mg/kg): 0.35 ± 0.05 µmol/mL
Cys content in serum ([3]; EDA 10 mg/kg): 0.38 ± 0.13 µmol/mL
Cys content in serum ([3]; EDA 30 mg/kg): 1.15 ± 0.10 µmol/mL
Grooming time [4, 7]: 6.29 ± 1.72
Grooming time [4, 8]: 5.04 ± 1.67
Grooming time [4, 9]: 17.27 ± 5.78
Grooming time compared with the placebo group ([4]; after 28 days of continuous gavage, each dose group of EDA, p<0.05, low and medium dose p<0.01 (FIG. 6)): significantly reduced
Grooming time compared with before treatment ([4]; after 28 days of treatment): significantly reduced
Grooming time compared with the positive drug (cromolyn sodium) group ([4]; after 28 days, EDA low-dose (3 mg/kg) and medium-dose (10 mg/kg) groups (FIG. 6)): significantly reduced
Grooming time [4, 10]: 29.17 ± 5.82
Grooming time [4, 11]: 20.76 ± 4.42
Grooming time [4, 12]: 36.3 ± 5.08
Social index (SI) ([5]; Day 14, EDA 3 mg/kg oral gavage once a day): 0.37 ± 0.14
Social index (SI) ([5]; Day 14, EDA 10 mg/kg oral gavage once a day): 0.42 ± 0.15
Social index (SI) ([5]; Day 14, EDA 30 mg/kg oral gavage once a day): 0.51 ± 0.11
Social index (SI) [5, 7]: 0.48 ± 0.10
Social index (SI) [5, 8]: 0.53 ± 0.09
Social index (SI) [5, 9]: 0.55 ± 0.06
Social index compared with the placebo group [5, 13]: significantly improved
Social index compared with the placebo group ([5]; after 28 days of treatment, each dose group of EDA, p<0.05, high dose p<0.01 (FIG. 4)): significantly improved
Social index (SI) [5, 10]: −0.12 ± 0.11
Social index (SI) [5, 11]: −0.07 ± 0.15
Social index (SI) [5, 12]: −0.04 ± 0.12
Social index compared with before treatment ([5]; each dose group, after 14 and 28 days of continuous gavage, self-comparison (FIG. 3)): increased significantly
GST activity in the hippocampus (HIP) ([6]; EDA 3 mg/kg): 144.5 ± 59.64 U/mgprot
GST activity in the prefrontal cortex (PFC) ([6]; EDA 3 mg/kg): 39.54 ± 13.34 U/mgprot
GST activity in the hippocampus (HIP) ([6]; EDA 10 mg/kg): 117.7 ± 28.12 U/mgprot
GST activity in the prefrontal cortex (PFC) ([6]; EDA 10 mg/kg): 46.93 ± 13.31 U/mgprot
GST activity in the hippocampus (HIP) ([6]; EDA 30 mg/kg): 295.4 ± 54.67 U/mgprot
GST activity in the prefrontal cortex (PFC) ([6]; EDA 30 mg/kg): 103.8 ± 22.27 U/mgprot
GST activity in the prefrontal cortex (PFC) compared with the placebo group ([6]; high-dose EDA group, p<0.01 (FIG. 9)): significantly increased
GST activity in the hippocampus (HIP) compared with the placebo group ([6]; high-dose EDA group, p<0.01 (FIG. 10)): significantly increased

O=C(O)c1cc(=O)c2c(OCC(O)COc3cccc4oc(C(=O)O)cc(=O)c34)cccc2o1 [cromolyn sodium]
Grooming time [4, 14]: 12.41 ± 2.01
Grooming time, positive drug solvent group versus positive drug group ([4]; after 28 days of treatment, cromolyn sodium 6.3 mg/kg intraperitoneal (FIG. 6)): no significant difference
Grooming time compared with before treatment ([4]; after 28 days of treatment): significantly reduced
Grooming time [4, 15]: 27.63 ± 5.78
Social index (SI) ([5]; Day 14, cromolyn sodium 6.3 mg/kg intraperitoneal once a day): 0.08 ± 0.37
Social index (SI) [5, 14]: 0.42 ± 0.07
Social index compared with the placebo group [5, 13]: significantly improved
Social index, positive drug versus positive drug solvent group ([5]; after 28 days of treatment, cromolyn sodium 6.3 mg/kg intraperitoneal (FIG. 4)): no significant difference
Social index (SI) [5, 15]: −0.13 ± 0.12
